The results in this text go back to patent US7476729B2, “Dbait and uses thereof” (Institut Curie, priority 2003, dated 2009).

The subject of series [1] is Hela cells. The experiment in a line: Clonogenic survival assay of Hela cells after 4×0.5 Gy irradiation. In kind it is cell-based, human. The settings on record: 4×0.5 Gy spaced 2 hours, Dbait transfected with Superfect (83 nM or 2 μg). Here is the method: (§1) Exponentially growing cells in six-well plates were harvested and incubated with […] of complete DMEM containing a mixture of Dbait molecules and Superfect reagent (Qiagen, Courtaboeuf, France) in a ratio of 10 μl Superfect per μg DNA. After 5 h at 37° C. under standard conditions, the cells were washed with PBS and complete DMEM was added. Where indicated, cells were exposed to irradiation either in one session (10 Gy) 5 h after the beginning of transfection or in four sessions of 0.5 Gy administered with a ^137Cs unit (1 Gy/min) 3, 4, 5 and 6 h after the beginning of transfection and allowed to grow for two weeks. When plasmid integration was measured, 2 μg of plasmid was added to Dbait transfection and puromycin (1.7 μg/ml) was added to the growth medium 48 h after transfection. Plasmid transfection efficiency was estimated by analyzing 10,000 cells for GFP expression on a FACScan flow cytometer (FACSalibur, Beckton-Dickinson, USA).
Upon 8 hours transfection of Dbait molecules in Hela cells and four irradiation with 0.5 Gy fractionated irradiation spaced 2 hours (4×0.5 Gy), performed with γ-rays from a ^137Cs source, a significant reduction of clonogenic survival was observed as compared to untransfected cells. The results are given on FIG. 2.1 wherein Panel A gives the dose-dependence of normalized survival clone number in the presence of Dbait32 (SEQ ID NO: 1) and Dbait32H (SEQ ID NO: 1), and Panel B, the normalized survival clone number in the presence of different Dbait molecules at 83 nM (concentration in culture medium). Cell culture was in MEM supplemented with 10% serum. Superfect (Qiagene) was used as transfection agent according to the manufacturer's instruction.
Clonogenic survival was estimated as the number of treated cells forming colonies on the number of untreated cells.

The test system of series [2] is DNA end-joining reaction in the nuclear extracts of Hep2 cells. The experiment in a line: DNA end-joining assay in Hep2 nuclear extract. In kind it is biochemical, human. The settings on record: 2 h incubation with various Dbait. Here is the method:
DNA end-joining was monitored by incubating ^32P-labeled 605-bp linear DNA fragments with Hep2 nuclear extract in the presence of various Dbait molecules. Ligation products migrate as dimers, trimers or tetramers, starting 605 bp monomer.
Approximately 16% of the ^32P-labeled blunt linear duplex DNA molecules were ligated into dimers and trimers during the first 2 h of incubation. The amount of high molecular weight ligation products increased up to 30% of the total input DNA after 16 h. […] In most experiments, Dbait32H (SEQ ID NO: 1) was added simultaneously with the labeled DNA fragments to the nuclear extract.
Various Dbait molecules were tested for their effect on the cell-free assay by adding the molecules to nuclear extract and incubating for 2 h with the DNA fragments.
(§2) DNA-PK activity was monitored using the kit SignaTECT DNA-dependent Protein Kinase Assay System (Promega, Madison, USA). Increasing amounts of Hep2 nuclear extract (cleaned of endogenous DNA by DEAE-Sepharose filtration) were assayed in the presence of 250 nM Dbait. Extract, biotinylated peptide substrate and various amount of nuclear extract were incubated 5 minutes at 30° C. with (γ-^32P)ATP according to manufacturer indications. The biotinylated substrate was capture on streptavidine membrane, washed and counted in a scintillation counter. Percentage of phosphorylation is calculated by dividing the bound radioactivity by the total count of (γ-^32P)ATP per sample. Reactions (10 μl) were carried out in 60 mM KOAc, 100 μg/ml BSA, 0.5 mM Mg(Cl)2, 1 μl T4 DNA ligase 10× buffer (Promega, Madison, USA). Nuclear extract and Dbait were incubated 2 minutes before addition of ^32P-labeled DNA (10 ng). Samples were incubated various time at 37° C. before ligation being stopped by 20 mM EDTA and 1 mg/ml Proteinase K addition. Ligation products were analyzed by electrophoresis through 0.7% agarose gels followed by autoradiography and quantification by phosphorimaging.

The test system of series [3] is radiation-enhanced illegitimate integration of a plasmid in Hela cells. The experiment in a line: Inhibition of radiation-enhanced illegitimate integration of exogenous DNA. In kind it is cell-based, human. The settings on record: 2 μg Dbait, fractionated 4×0.5 Gy irradiation. The protocol: as §1
Ionizing radiation is known to improve illegitimate integration of exogenous DNA, a process termed radiation-enhanced integration. Hela cell culture was used for this assay. Cells were transfected during 8 hours by 2 μg of a linear plasmid carrying the gene coding for neomycin resistance, and three different ratio of DNA/superfect (1:2, 1:5, 1:10). During transfection time, the cells were exposed to different irradiation protocols: no irradiation, one single irradiation of 1 Gy and 2 Gy, as well as a 2 Gy irradiation delivered by fractionated doses of 0.5 Gy every 2 hours (4×0.5 Gy). The integration of the plasmid was monitored by selection of Neo^R cells growing in a medium containing 0.6 mg/ml of G418. […] When 2 μg of Dbait32H (SEQ ID NO: 1) molecules were added to the transfection mix, the radiation-enhanced integration was abolished (FIG. 2.3).
Wortmann (Wort) and NU7026 (NU) which are known inhibitors of PI3K (including DNA-PK) were used as control.

Series [4] addresses T1, Ku complex (Homo sapiens, UniProt P12956+P13010).
T1 construct: in the presence of nuclear protein extracts from Hep2 cells according to standard protocol; endogenous in cells; host or cells: Hep2 cells (nuclear protein extract)
The experiment in a line: Band-shift assay with Hep2 nuclear protein extracts. Conditions: for retarded bands in band-shift assay: 10 nM 32P radio-labelled Dbait, 0-320 ng/μL Hep2 nuclear proteins, 30° C., 10 minutes. It counts as binding. The protocol: As the first step to dissect the mechanism of action of Dbait molecules, a series of band-shift assays were carried out with different ^32P radio-labelled Dbait molecules in the presence of nuclear protein extracts from Hep2 cells according to standard protocol. Typically, 10 nM ^32P radio-labelled Dbait molecules were incubated in the presence of various concentrations of nuclear proteins (0, 10, 20, 40, 80, 160, and 320 ng/μL) at 30° C. for 10 minutes in TBE buffer. Then the samples were loaded on a 5% acrylamide native gel. The electrophoresis was run at 95V for 2 hours at 4° C. The gel was dried and scanned by phosphorimager (Molecular Dynamics).
For 32-bp Dbait molecules, the intensity of the retarded band 1 increases and then decreases as the concentration of protein increases, while the intensity of the retarded band 2 increases as a function of the concentration of nuclear protein extracts.
It is likely that band 1 has one Ku70/80 complex bound to the 16 to 32-bp Dbait, whereas the band 2 has two Ku70/80 complexes bound to the 32-bp Dbait molecules. Control experiments performed with purified Ku proteins confirmed this interpretation.

Series [5] has as its target T2, DNA-PK (Homo sapiens, UniProt P12956+P13010+P78527).
T2 construct: Increasing amounts of Hep2 nuclear extract (cleaned of endogenous DNA by DEAE-Sepharose filtration) were assayed; endogenous in cells; host or cells: Hep2 cells (nuclear extract, DNA removed by DEAE-Sepharose filtration)
The experiment in a line: DNA-dependent protein kinase (DNA-PK) activity assay in Hep2 nuclear extract. It counts as biochemical. The settings on record: 2 μg Dbait, 1.5 μg Hep2 nuclear protein extract. The protocol:
as §2
The kinase activity depended directly on the length and structure of the double-stranded ‘stem’ of the Dbait molecule. […] In addition, various backbone modifications (phosphothioate, methyphosphonate, 3′-3′ linkage) at the free blunt end (up to 3-bp), as well as the internally tagged ligands (e.g. fluorescent dyes), are capable of activating DNA-PK activity.

T1 sequence (P12956 whole entry): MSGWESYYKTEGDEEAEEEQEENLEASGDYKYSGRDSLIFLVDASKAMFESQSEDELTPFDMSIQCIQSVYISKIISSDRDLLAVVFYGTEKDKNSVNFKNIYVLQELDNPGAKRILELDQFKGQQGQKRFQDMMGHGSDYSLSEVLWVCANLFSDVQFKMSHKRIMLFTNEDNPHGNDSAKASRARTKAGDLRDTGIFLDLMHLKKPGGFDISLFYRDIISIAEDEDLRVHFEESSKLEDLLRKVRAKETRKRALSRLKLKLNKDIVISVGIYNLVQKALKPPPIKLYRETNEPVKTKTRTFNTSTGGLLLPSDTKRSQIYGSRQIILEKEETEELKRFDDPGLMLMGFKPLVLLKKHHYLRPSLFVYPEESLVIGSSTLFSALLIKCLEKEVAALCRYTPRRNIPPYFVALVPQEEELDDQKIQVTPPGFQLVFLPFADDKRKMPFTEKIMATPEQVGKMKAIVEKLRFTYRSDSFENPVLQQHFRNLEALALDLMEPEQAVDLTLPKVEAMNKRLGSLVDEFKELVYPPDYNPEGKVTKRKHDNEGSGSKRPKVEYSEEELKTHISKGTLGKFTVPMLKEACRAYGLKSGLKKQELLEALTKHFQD
T1 sequence (P13010 whole entry): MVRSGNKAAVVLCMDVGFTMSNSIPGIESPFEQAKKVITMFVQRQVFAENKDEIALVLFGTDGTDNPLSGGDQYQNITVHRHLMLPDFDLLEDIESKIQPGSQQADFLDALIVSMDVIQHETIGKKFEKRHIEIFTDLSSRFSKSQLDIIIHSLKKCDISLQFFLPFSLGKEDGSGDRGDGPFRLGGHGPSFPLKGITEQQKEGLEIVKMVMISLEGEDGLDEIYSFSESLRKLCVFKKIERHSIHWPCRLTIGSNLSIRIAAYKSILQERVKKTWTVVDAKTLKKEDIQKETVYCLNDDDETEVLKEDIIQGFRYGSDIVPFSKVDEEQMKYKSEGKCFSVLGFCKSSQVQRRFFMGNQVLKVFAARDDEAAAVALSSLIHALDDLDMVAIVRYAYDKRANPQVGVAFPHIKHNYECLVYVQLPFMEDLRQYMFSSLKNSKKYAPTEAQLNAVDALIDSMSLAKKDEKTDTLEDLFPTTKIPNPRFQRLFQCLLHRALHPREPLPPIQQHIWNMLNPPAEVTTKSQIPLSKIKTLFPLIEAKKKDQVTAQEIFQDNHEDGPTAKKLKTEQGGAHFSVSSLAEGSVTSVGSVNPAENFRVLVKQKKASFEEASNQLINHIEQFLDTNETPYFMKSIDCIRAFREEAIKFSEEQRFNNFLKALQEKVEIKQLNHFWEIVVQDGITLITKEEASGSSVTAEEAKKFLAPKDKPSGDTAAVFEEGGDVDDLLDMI

For the substance “5′ACGCACGGGTGTTGGGTCGTTTGTTCGGATCT ACGCACGGTCGTTTGTTCGGTGTTGGCGATCT3′ [Dbait64L]”, the clonogenic survival entry in series [1] is “significantly reduced clonogenic survival”.

Regarding “Dbait32C: dumbbell 32-bp double strand DNA (without free blunt end) (DNA ACGCACGGGTGTTGGGTCGTTTGTTCGGATCT; DNA, backbone not given here; dumbbell duplex DNA, both ends closed by hexaethyleneglycol loops)”, the “ligation of DNA fragments in cell-free assay” value in series [2] is listed as “largely unaffected”. Moreover, the “radiation-enhanced illegitimate integration of plasmid (puromycin resistance)” value in series [3] is “not effective”. As to “5′ACGCACGGGTGTTGGGTCGTTTGTTCGGATCTACGCACGGTCGTTTGTTCGGTGTTGGCGATCT3′ [Dbait64]”, the clonogenic survival result in series [1] is “significantly reduced clonogenic survival”.

For the substance “Dbait32H-po: full length phosphodiester Dbait32H (DNA ACGCACGGGTGTTGGGTCGTTTGTTCGGATCT; DNA, phosphodiester; hairpin DNA closed by hexaethyleneglycol loop)”, the “retarded bands in band-shift assay” value in series [4] was “two retarded band”.

For the substance “Dbait32-T4: contains four thymines (T4) as a linker instead of a hexaethyleneglycol linker (DNA ACGCACGGGTGTTGGGTCGTTTGTTCGGATCT; DNA, backbone not given here; hairpin DNA with four-thymine loop, 3-bp phosphorothioate at free blunt end)”, the clonogenic survival result in series [1] is on record as “significantly reduced clonogenic survival”. For “Dbait24H: hairpin double strand DNA with a stem of 24-bp (DNA ACGCACGGGTGTTGGGTCGTTTGT; DNA, backbone not given here; hairpin DNA with hexaethyleneglycol loop, 3-bp phosphorothioate at free blunt end)”, the “retarded bands in band-shift assay” value in series [4] is recorded as “One retarded band”. Moreover, in series [4] (Hep2 nuclear extract, band-shift), the “binding of Ku” value is “bound only one Ku dimer”. Further, the clonogenic survival entry in series [1] was “significantly reduced clonogenic survival”. Besides, the “DNA-PK activation (kinase activity)” value in series [5] is on record as “inefficient”. Besides, the “ligation of DNA fragments in cell-free assay” value in series [2] is listed as “inhibited the ligation as efficiently as Dbait32H”.
